According to patent US10351575B2, “Bicyclic urea, thiourea, guanidine and cyanoguanidine compounds useful for the treatment of pain” (Array BioPharma Inc., priority 2012, dated 2019):

Columns and labels:
Experiment in all cases: KinaseProfiler off-target kinase profiling
Assay type in all cases: biochemical
Settings in all cases: 10 μM, ATP near Km
[1] = molecular target: HIPK3 (Homo sapiens (Human), UniProt Q9H422)
In short: (§1)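 Tested once at 10 μM, in two replicates, under near-Km ATP for the given kinase; result expressed as mean POC.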

[2] = molecular target: Fms (Homo sapiens (Human), UniProt P07333)
In short: as §1

[3] = molecular target: Rsk1 (Homo sapiens (Human), UniProt Q15418)
In short: as §1

[4] = molecular target: DCAMKL2 (Homo sapiens (Human), UniProt Q8N568)
In short: as §1

[5] = molecular target: MSSK1 (Homo sapiens (Human), UniProt Q9UPE1)
In short: as §1

[6] = molecular target: DMPK (Homo sapiens (Human), UniProt Q09013)
In short: as §1

[7] = molecular target: Tie2 (Homo sapiens (Human), UniProt Q02763)
In short: as §1

[8] = molecular target: ULK3 (Homo sapiens (Human), UniProt Q6PHR2)
In short: as §1

[9] = molecular target: CDK9/cyclinT1 (Homo sapiens (Human), UniProt P50750)
In short: as §1

[10] = molecular target: TSSK1 (Homo sapiens (Human), UniProt Q9BXA7)
In short: as §1

[11] = molecular target: CK1gamma3 (Homo sapiens (Human), UniProt Q9Y6M4)
In short: as §1

[12] = molecular target: Abl-P (Homo sapiens (Human), UniProt P00519)
In short: as §1

[13] = system: CK1_y
In short: as §1

[14] = molecular target: JNK2alpha2 (Homo sapiens (Human), UniProt P45984)
In short: as §1

[15] = molecular target: Ros (Homo sapiens (Human), UniProt P08922)
In short: as §1

[16] = molecular target: MST3 (Homo sapiens (Human), UniProt Q9Y6E0)
In short: as §1

[17] = molecular target: MRCKalpha (Homo sapiens (Human), UniProt Q5VT25)
In short: as §1

[18] = molecular target: Fyn (Homo sapiens (Human), UniProt P06241)
In short: as §1

[19] = molecular target: p38alpha (Homo sapiens (Human), UniProt Q16539)
In short: as §1

[20] = molecular target: MARK2 (Homo sapiens (Human), UniProt Q7KZI7)
In short: as §1

[21] = molecular target: TAO2 (Homo sapiens (Human), UniProt Q9UL54)
In short: as §1

[22] = molecular target: Pim-2 (Homo sapiens (Human), UniProt Q9P1W9)
In short: as §1

[23] = molecular target: ROCK-II (Homo sapiens (Human), UniProt O75116)
In short: as §1

[24] = molecular target: FAK2 (Homo sapiens (Human), UniProt Q14289)
In short: as §1

[25] = molecular target: CK2 (Homo sapiens (Human), UniProt P68400)
In short: as §1

[26] = molecular target: FGFR4 (Homo sapiens (Human), UniProt P22455)
In short: as §1

[27] = molecular target: SRC (Homo sapiens (Human), UniProt P12931)
In short: as §1

[28] = molecular target: CDK7/cyclinH/MAT1 (Homo sapiens (Human), UniProt P50613)
In short: as §1

[29] = molecular target: EphA2 (Homo sapiens (Human), UniProt P29317)
In short: as §1

[30] = molecular target: DAPK2 (Homo sapiens (Human), UniProt Q9UIK4)
In short: as §1

[31] = molecular target: PKD1 (Homo sapiens (Human), UniProt Q15139)
In short: as §1

[32] = molecular target: p38delta (Homo sapiens (Human), UniProt O15264)
In short: as §1

[33] = molecular target: IR (Homo sapiens (Human), UniProt P06213)
In short: as §1

[34] = molecular target: VRK2 (Homo sapiens (Human), UniProt Q86Y07)
In short: as §1

[35] = molecular target: PRKG1beta (Homo sapiens (Human), UniProt Q13976)
In short: as §1

[36] = molecular target: TrkA (Homo sapiens (Human), UniProt P04629)
In short: as §1

[37] = molecular target: Abl2 (Homo sapiens (Human), UniProt P42684)
In short: as §1

[38] = molecular target: ALK4 (Homo sapiens (Human), UniProt P36896)
In short: as §1

[39] = molecular target: CHK2 (Homo sapiens (Human), UniProt O96017)
In short: as §1

Chain of TSSK1 (Q9BXA7 whole entry): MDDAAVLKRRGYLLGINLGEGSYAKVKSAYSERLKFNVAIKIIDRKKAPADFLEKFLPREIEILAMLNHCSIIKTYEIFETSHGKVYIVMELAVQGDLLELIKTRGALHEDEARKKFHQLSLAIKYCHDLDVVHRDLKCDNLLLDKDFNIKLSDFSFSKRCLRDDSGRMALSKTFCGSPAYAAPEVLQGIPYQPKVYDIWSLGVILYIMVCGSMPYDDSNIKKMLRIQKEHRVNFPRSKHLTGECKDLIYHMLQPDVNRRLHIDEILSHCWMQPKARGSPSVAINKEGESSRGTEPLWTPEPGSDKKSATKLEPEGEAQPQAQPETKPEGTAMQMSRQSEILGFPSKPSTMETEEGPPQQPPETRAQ
Chain of FAK2 (Q14289 whole entry): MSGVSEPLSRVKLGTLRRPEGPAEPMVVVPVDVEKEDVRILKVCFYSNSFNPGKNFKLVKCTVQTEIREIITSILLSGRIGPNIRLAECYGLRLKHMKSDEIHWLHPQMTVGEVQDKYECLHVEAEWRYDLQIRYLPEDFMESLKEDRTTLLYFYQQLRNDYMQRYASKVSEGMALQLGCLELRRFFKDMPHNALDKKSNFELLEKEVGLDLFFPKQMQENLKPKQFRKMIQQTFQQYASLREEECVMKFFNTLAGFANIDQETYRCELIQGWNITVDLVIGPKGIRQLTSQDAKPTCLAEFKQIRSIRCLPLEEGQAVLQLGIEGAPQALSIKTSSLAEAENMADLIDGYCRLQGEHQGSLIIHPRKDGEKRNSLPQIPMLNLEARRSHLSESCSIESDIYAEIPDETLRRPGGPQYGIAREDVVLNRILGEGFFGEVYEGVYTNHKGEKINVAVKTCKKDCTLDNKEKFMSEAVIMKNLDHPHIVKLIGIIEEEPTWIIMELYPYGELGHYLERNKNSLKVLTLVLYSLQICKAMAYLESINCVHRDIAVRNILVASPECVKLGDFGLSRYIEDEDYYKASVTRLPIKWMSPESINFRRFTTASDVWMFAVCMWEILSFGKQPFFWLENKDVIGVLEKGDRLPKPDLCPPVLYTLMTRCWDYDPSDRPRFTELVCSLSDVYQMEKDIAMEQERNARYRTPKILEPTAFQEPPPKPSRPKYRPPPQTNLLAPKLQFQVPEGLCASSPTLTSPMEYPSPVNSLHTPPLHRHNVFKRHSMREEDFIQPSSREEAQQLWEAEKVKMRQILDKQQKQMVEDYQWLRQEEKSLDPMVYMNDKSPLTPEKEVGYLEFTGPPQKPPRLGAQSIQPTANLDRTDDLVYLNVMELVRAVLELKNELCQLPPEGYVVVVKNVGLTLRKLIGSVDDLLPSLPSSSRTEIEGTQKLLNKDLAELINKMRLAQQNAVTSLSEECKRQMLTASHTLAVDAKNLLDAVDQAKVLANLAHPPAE
Chain of CK2 (P68400 whole entry): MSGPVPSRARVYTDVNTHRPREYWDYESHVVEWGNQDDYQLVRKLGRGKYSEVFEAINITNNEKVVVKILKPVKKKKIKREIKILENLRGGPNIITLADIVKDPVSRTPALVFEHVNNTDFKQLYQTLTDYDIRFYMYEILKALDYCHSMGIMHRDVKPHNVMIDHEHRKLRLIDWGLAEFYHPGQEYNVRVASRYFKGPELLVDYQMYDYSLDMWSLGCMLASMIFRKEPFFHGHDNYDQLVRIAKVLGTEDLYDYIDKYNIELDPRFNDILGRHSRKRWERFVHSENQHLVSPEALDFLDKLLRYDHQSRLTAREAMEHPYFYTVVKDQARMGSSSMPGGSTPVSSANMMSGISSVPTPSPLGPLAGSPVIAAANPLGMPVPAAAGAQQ
Chain of CK2 (P67870 whole entry partner): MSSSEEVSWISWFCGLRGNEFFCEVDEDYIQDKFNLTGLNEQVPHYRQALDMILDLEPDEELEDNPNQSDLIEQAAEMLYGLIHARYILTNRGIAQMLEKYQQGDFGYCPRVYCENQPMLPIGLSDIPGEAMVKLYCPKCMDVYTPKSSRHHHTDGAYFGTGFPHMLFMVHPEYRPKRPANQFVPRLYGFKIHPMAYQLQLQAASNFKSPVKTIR
Chain of p38delta (O15264 whole entry): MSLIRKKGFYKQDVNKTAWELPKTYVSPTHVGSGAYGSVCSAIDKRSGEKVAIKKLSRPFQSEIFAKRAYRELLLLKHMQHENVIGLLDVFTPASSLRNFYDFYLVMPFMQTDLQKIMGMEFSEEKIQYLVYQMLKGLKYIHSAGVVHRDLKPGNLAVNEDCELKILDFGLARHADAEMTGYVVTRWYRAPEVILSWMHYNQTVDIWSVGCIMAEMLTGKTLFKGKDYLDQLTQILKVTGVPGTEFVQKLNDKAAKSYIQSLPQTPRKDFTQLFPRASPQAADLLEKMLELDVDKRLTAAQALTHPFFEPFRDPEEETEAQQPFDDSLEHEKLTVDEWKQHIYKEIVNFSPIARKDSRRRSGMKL
Chain of TAO2 (Q9UL54 whole entry): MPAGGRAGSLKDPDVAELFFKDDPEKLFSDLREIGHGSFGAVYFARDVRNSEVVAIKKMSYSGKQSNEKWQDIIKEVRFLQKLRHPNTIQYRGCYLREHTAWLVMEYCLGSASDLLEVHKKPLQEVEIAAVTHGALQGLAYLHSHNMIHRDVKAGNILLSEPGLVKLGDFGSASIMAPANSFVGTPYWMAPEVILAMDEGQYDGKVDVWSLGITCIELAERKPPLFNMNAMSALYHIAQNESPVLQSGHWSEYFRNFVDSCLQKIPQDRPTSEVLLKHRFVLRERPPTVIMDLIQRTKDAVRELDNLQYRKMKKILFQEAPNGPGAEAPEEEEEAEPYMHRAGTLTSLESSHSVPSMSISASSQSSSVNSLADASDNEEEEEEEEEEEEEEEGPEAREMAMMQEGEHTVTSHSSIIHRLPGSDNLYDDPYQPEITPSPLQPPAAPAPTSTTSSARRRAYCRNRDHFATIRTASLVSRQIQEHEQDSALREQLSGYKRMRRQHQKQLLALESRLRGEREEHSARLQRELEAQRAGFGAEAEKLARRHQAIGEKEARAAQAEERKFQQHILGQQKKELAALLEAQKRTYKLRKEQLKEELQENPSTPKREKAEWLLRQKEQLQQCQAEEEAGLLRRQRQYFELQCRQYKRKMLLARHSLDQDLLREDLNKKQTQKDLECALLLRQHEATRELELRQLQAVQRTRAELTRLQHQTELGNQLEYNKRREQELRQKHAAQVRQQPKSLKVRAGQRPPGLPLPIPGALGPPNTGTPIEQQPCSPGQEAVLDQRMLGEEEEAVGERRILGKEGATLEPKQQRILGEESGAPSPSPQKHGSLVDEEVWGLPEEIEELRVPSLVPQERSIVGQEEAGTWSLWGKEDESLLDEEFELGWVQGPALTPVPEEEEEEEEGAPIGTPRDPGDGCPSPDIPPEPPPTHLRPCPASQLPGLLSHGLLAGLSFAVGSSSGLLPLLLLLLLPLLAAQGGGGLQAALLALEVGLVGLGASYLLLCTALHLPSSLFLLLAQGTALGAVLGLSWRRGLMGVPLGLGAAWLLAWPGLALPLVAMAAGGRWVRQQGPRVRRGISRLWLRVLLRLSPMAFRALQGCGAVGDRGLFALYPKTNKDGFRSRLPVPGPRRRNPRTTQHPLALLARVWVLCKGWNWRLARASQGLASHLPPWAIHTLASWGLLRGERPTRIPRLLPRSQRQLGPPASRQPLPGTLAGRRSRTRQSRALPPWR
Chain of MSSK1 (Q9UPE1 whole entry): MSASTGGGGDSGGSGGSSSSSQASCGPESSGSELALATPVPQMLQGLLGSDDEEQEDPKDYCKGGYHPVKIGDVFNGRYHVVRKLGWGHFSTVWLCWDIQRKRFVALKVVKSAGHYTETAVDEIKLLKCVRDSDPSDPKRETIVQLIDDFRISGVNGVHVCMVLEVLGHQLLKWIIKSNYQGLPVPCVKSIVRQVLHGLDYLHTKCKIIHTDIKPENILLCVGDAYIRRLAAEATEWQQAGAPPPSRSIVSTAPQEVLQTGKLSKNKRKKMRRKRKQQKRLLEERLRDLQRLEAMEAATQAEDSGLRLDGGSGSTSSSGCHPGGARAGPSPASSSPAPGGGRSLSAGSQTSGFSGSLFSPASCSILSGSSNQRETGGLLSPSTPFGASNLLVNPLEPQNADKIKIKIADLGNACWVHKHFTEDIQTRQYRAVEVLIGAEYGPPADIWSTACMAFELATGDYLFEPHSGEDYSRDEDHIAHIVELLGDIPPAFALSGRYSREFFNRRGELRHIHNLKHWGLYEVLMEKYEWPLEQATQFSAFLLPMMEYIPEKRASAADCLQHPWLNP
Chain of Rsk1 (Q15418 whole entry): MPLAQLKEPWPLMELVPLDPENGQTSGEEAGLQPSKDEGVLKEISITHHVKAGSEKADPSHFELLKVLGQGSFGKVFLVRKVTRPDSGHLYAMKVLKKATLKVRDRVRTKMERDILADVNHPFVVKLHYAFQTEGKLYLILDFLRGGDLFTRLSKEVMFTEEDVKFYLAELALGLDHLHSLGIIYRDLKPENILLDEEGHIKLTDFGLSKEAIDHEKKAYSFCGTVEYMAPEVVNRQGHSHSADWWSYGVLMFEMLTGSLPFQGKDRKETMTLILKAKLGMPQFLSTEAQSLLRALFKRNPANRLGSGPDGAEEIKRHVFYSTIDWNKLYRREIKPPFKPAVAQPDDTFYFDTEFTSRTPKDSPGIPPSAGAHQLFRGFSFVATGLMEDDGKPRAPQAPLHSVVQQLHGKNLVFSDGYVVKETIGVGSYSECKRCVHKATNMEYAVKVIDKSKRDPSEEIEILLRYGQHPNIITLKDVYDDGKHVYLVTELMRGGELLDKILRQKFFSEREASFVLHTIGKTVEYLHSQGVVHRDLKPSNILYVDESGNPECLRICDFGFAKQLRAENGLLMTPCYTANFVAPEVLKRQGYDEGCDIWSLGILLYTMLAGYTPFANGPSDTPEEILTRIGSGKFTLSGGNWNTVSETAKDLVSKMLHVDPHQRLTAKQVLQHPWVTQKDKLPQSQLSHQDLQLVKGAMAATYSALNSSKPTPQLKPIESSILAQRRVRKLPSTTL

## Cc1c(-c2cnn(C)c2)nn(-c2ccccc2)c1NC(=O)N[C@H]1CCCc2ccccc21 [Example 2, (S)-1-(1′,4-dimethyl-1-phenyl-1H,1′H-3,4′-bipyrazol-5-yl)-3-(1,2,3,4-tetrahydronaphthalen-1-yl)urea]
[1]
  Avg. POC: 119.5 POC
[2]
  Avg. POC: 82 POC
[3]
  Avg. POC: 117 POC
[4]
  Avg. POC: 157.5 POC
[5]
  Avg. POC: 116 POC
[6]
  Avg. POC: 105 POC
[7]
  Avg. POC: 126 POC
[8]
  Avg. POC: 105 POC
[9]
  Avg. POC: 127 POC
[10]
  Avg. POC: 106 POC
[11]
  Avg. POC: 118 POC
[12]
  Avg. POC: 146.5 POC
[13]
  Avg. POC: 100.5 POC
[14]
  Avg. POC: 103.5 POC
[15]
  Avg. POC: 106.5 POC
[16]
  Avg. POC: 120 POC
[17]
  Avg. POC: 127.5 POC
[18]
  Avg. POC: 123.5 POC
[19]
  Avg. POC: 102.5 POC
[20]
  Avg. POC: 109 POC
[21]
  Avg. POC: 110 POC
[22]
  Avg. POC: 148 POC
[23]
  Avg. POC: 108 POC
[24]
  Avg. POC: 120 POC
[25]
  Avg. POC: 107 POC
[26]
  Avg. POC: 124 POC
[27]
  Avg. POC: 99.5 POC
[28]
  Avg. POC: 111 POC
[29]
  Avg. POC: 129 POC
[30]
  Avg. POC: 123.5 POC
[31]
  Avg. POC: 110.5 POC
[32]
  Avg. POC: 96.5 POC
[33]
  Avg. POC: 44 POC
[34]
  Avg. POC: 109 POC
[35]
  Avg. POC: 122 POC
[36]
  Avg. POC: 1.5 POC
[37]
  Avg. POC: 112.5 POC
[38]
  Avg. POC: 98.5 POC
[39]
  Avg. POC: 119 POC

## Cc1c(-c2cnn(C)c2)nn(-c2ccccc2)c1NC(=O)NC1CCOc2cc(F)ccc21 (centres unmarked) [Example 12, 1-(1′,4-dimethyl-1-phenyl-1H,1′H-[3,4′-bipyrazol]-5-yl)-3-(7-fluorochroman-4-yl)urea]
[1]
  Avg. POC: 102.5 POC
[2]
  Avg. POC: 91 POC
[3]
  Avg. POC: 107.5 POC
[4]
  Avg. POC: 169 POC
[5]
  Avg. POC: 112.5 POC
[6]
  Avg. POC: 104 POC
[7]
  Avg. POC: 104.5 POC
[8]
  Avg. POC: 89.5 POC
[9]
  Avg. POC: 106 POC
[10]
  Avg. POC: 79 POC
[11]
  Avg. POC: 104.5 POC
[12]
  Avg. POC: 135.5 POC
[13]
  Avg. POC: 101 POC
[14]
  Avg. POC: 96 POC
[15]
  Avg. POC: 97.5 POC
[16]
  Avg. POC: 131.5 POC
[17]
  Avg. POC: 139 POC
[18]
  Avg. POC: 92.5 POC
[19]
  Avg. POC: 110 POC
[20]
  Avg. POC: 105.5 POC
[21]
  Avg. POC: 121 POC
[22]
  Avg. POC: 118.5 POC
[23]
  Avg. POC: 99 POC
[24]
  Avg. POC: 111 POC
[25]
  Avg. POC: 98 POC
[26]
  Avg. POC: 119 POC
[27]
  Avg. POC: 97 POC
[28]
  Avg. POC: 101 POC
[29]
  Avg. POC: 113 POC
[30]
  Avg. POC: 102.5 POC
[31]
  Avg. POC: 115 POC
[32]
  Avg. POC: 99.5 POC
[33]
  Avg. POC: 92 POC
[34]
  Avg. POC: 95 POC
[35]
  Avg. POC: 95.5 POC
[36]
  Avg. POC: −0.5 POC
[37]
  Avg. POC: 118 POC
[38]
  Avg. POC: 101 POC
[39]
  Avg. POC: 92 POC

## Cc1c(-c2ccc(=O)n(C)c2)nn(-c2ccccc2)c1NC(=O)NC1CN(CC(F)(F)F)Cc2ccccc21 (centres unmarked) [Example 26, 1-(4-methyl-3-(1-methyl-6-oxo-1,6-dihydropyridin-3-yl)-1-phenyl-1H-pyrazol-5-yl)-3-(2-(2,2,2-trifluoroethyl)-1,2,3,4-tetrahydroisoquinolin-4-yl)urea]
[1]
  Avg. POC: 111 POC
[2]
  Avg. POC: 96 POC
[3]
  Avg. POC: 121 POC
[4]
  Avg. POC: 135 POC
[5]
  Avg. POC: 120.5 POC
[6]
  Avg. POC: 106 POC
[7]
  Avg. POC: 106.5 POC
[8]
  Avg. POC: 92.5 POC
[9]
  Avg. POC: 112.5 POC
[10]
  Avg. POC: 71.5 POC
[11]
  Avg. POC: 102.5 POC
[12]
  Avg. POC: 131 POC
[14]
  Avg. POC: 104 POC
[15]
  Avg. POC: 106.5 POC
[16]
  Avg. POC: 108.5 POC
[17]
  Avg. POC: 124.5 POC
[18]
  Avg. POC: 115.5 POC
[19]
  Avg. POC: 104.5 POC
[20]
  Avg. POC: 102.5 POC
[21]
  Avg. POC: 111 POC
[22]
  Avg. POC: 120.5 POC
[23]
  Avg. POC: 110 POC
[24]
  Avg. POC: 104.5 POC
[25]
  Avg. POC: 110.5 POC
[26]
  Avg. POC: 123 POC
[27]
  Avg. POC: 104.5 POC
[28]
  Avg. POC: 113.5 POC
[29]
  Avg. POC: 102 POC
[30]
  Avg. POC: 108.5 POC
[31]
  Avg. POC: 113.5 POC
[32]
  Avg. POC: 102 POC
[33]
  Avg. POC: 82.5 POC
[34]
  Avg. POC: 98 POC
[35]
  Avg. POC: 111.5 POC
[36]
  Avg. POC: 0.5 POC
[37]
  Avg. POC: 105 POC
[38]
  Avg. POC: 102.5 POC
[39]
  Avg. POC: 109 POC
